The source made the active and inactive calls. No cut-off for these calls is given here.
Key:
[1] = Half life in human plasma; assay type: ADME, cell-free
THP-1 [2] = test: Cytotoxicity against human THP1 cells assessed as effect on cell viability up to 400 uM measured after 6 to 48 hrs by MTT assay; assay type: cell-based
THP-1 [3] = test: Neuroprotective activity against Abeta (25 to 35 residues)-induced cell death in human THP1 cells assessed as cell survival at 10 uM preincubated for 2 hrs followed by Abeta (25 to 35 residues) addition and measured after 24 hrs by MTT assay (reference value: 40%); assay type: functional; conditions: read-out: Survival
[4] = Solubility of the compound in water; assay type: physicochemical; conditions: buffer
THP-1 [5] = test: Neuroprotective activity against H2O2-induced cell death in human THP1 cells assessed as cell survival at 10 uM preincubated for 2 hrs followed by H2O2 addition and measured after 24 hrs by MTT assay (reference value: 43%); assay type: functional; conditions: read-out: Survival
THP-1 [6] = test: Antiinflammatory activity in PMA-differentiated human THP1 cells assessed as reduction in IL-1beta expression at 10 uM preincubated for 4 hrs followed by PMA addition and measured after 20 hrs by Trizol reagent based RT-PCR analysis; assay type: functional, cell-based
THP-1 [7] = test: Antiinflammatory activity in PMA-differentiated human THP1 cells assessed as reduction in IL-18 expression at 10 uM preincubated for 4 hrs followed by PMA addition and measured after 20 hrs by Trizol reagent based RT-PCR analysis; assay type: functional, cell-based
THP-1 [8] = test: Antiinflammatory activity in PMA-differentiated human THP1 cells assessed as reduction in MCP1 expression at 10 uM preincubated for 4 hrs followed by PMA addition and measured after 20 hrs by Trizol reagent based RT-PCR analysis; assay type: functional, cell-based
THP-1 [9] = test: Antiinflammatory activity in PMA-differentiated human THP1 cells assessed as reduction in TNFalpha expression at 10 uM preincubated for 4 hrs followed by PMA addition and measured after 20 hrs by Trizol reagent based RT-PCR analysis; assay type: functional, cell-based
THP-1 [10] = test: Immunostimulatory activity in PMA-differentiated human THP1 cells assessed as increase in IL-1beta expression at 10 uM preincubated for 4 hrs followed by PMA addition and measured after 20 hrs by Trizol reagent based RT-PCR analysis; assay type: functional, cell-based
THP-1 [11] = test: Immunostimulatory activity in PMA-differentiated human THP1 cells assessed as increase in IL-18 expression at 10 uM preincubated for 4 hrs followed by PMA addition and measured after 20 hrs by Trizol reagent based RT-PCR analysis; assay type: functional, cell-based
THP-1 [12] = test: Immunostimulatory activity in PMA-differentiated human THP1 cells assessed as increase in MCP1 expression at 10 uM preincubated for 4 hrs followed by PMA addition and measured after 20 hrs by Trizol reagent based RT-PCR analysis; assay type: functional, cell-based
THP-1 [13] = test: Immunostimulatory activity in PMA-differentiated human THP1 cells assessed as increase in TNFalpha expression at 10 uM preincubated for 4 hrs followed by PMA addition and measured after 20 hrs by Trizol reagent based RT-PCR analysis; assay type: functional, cell-based
THP-1 [14] = test: Antiinflammatory activity in human THP1 cells assessed as reduction in Abeta (25 to 35 residues)-induced TNFalpha expression at 10 uM preincubated for 2 hrs followed by Abeta (25 to 35 residues) addition and measured after 24 hrs by Trizol reagent based RT-PCR analysis; assay type: functional, cell-based
THP-1 [15] = test: Antiinflammatory activity in human THP1 cells assessed as reduction in LPS-induced IL-1beta expression at 10 uM preincubated for 2 hrs followed by LPS addition and measured after 24 hrs by Trizol reagent based RT-PCR analysis; assay type: functional, cell-based
THP-1 [16] = test: Antiinflammatory activity in human THP1 cells assessed as reduction in LPS-induced IL18 expression at 10 uM preincubated for 2 hrs followed by LPS addition and measured after 24 hrs by Trizol reagent based RT-PCR analysis; assay type: functional, cell-based
THP-1 [17] = test: Antiinflammatory activity in human THP1 cells assessed as reduction in Abeta (25 to 35 residues)-induced IL18 expression at 10 uM preincubated for 2 hrs followed by Abeta (25 to 35 residues) addition and measured after 24 hrs by Trizol reagent based RT-PCR analysis; assay type: functional, cell-based
THP-1 [18] = test: Antiinflammatory activity in human THP1 cells assessed as reduction in Abeta (25 to 35 residues)-induced MCP1 expression at 10 uM preincubated for 2 hrs followed by Abeta (25 to 35 residues) addition and measured after 24 hrs by Trizol reagent based RT-PCR analysis; assay type: functional, cell-based
THP-1 [19] = test: Antiinflammatory activity in PMA-differentiated human THP1 cells assessed as reduction in INFgamma/LPS-induced IL-1beta expression at 10 uM preincubated for 2 hrs followed by INFgamma/LPS addition and measured after 6 hrs by Trizol reagent based RT-PCR analysis; assay type: functional, cell-based
THP-1 [20] = test: Antiinflammatory activity in PMA-differentiated human THP1 cells assessed as reduction in INFgamma/LPS-induced IL-8 expression at 10 uM preincubated for 2 hrs followed by INFgamma/LPS addition and measured after 6 hrs by Trizol reagent based RT-PCR analysis; assay type: functional, cell-based
THP-1 [21] = test: Antiinflammatory activity in PMA-differentiated human THP1 cells assessed as reduction in IL4-induced IL-10 expression at 10 uM preincubated for 2 hrs followed by IL4 addition and measured after 6 hrs by Trizol reagent based RT-PCR analysis; assay type: functional, cell-based
THP-1 [22] = test: Antiinflammatory activity in PMA-differentiated human THP1 cells assessed as reduction in IL4-induced CCL18 expression at 10 uM preincubated for 2 hrs followed by IL4 addition and measured after 6 hrs by Trizol reagent based RT-PCR analysis; assay type: functional, cell-based
THP-1 [23] = test: Antiinflammatory activity in PMA-differentiated human THP1 cells assessed as reduction in IL4-induced CCL22 expression at 10 uM preincubated for 2 hrs followed by IL4 addition and measured after 6 hrs by Trizol reagent based RT-PCR analysis; assay type: functional, cell-based
THP-1 [24] = test: Antiinflammatory activity in human THP1 cells assessed as reduction in LPS-induced TNFalpha expression at 10 uM preincubated for 2 hrs followed by LPS addition and measured after 24 hrs by Trizol reagent based RT-PCR analysis; assay type: functional, cell-based
THP-1 [25] = test: Antiinflammatory activity in human THP1 cells assessed as reduction in Abeta (25 to 35 residues)-induced IL-1beta expression at 10 uM preincubated for 2 hrs followed by Abeta (25 to 35 residues) addition and measured after 24 hrs by Trizol reagent based RT-PCR analysis; assay type: functional, cell-based
THP-1 [26] = test: Antiinflammatory activity in PMA-differentiated human THP1 cells assessed as reduction in LPS-induced IL-1beta expression at 10 uM preincubated for 2 hrs followed by LPS addition and measured after 24 hrs by Trizol reagent based RT-PCR analysis; assay type: functional, cell-based
THP-1 [27] = test: Antiinflammatory activity in PMA-differentiated human THP1 cells assessed as reduction in LPS-induced IL18 expression at 10 uM preincubated for 2 hrs followed by LPS addition and measured after 24 hrs by Trizol reagent based RT-PCR analysis; assay type: functional, cell-based
THP-1 [28] = test: Immunostimulatory activity in PMA-differentiated human THP1 cells assessed as increase in LPS-induced IL-4 expression at 10 uM preincubated for 2 hrs followed by LPS addition and measured after 24 hrs by Trizol reagent based RT-PCR analysis; assay type: functional, cell-based
THP-1 [29] = test: Immunostimulatory activity in PMA-differentiated human THP1 cells assessed as increase in LPS-induced IL-10 expression at 10 uM preincubated for 2 hrs followed by LPS addition and measured after 24 hrs by Trizol reagent based RT-PCR analysis; assay type: functional, cell-based

Structure (SMILES)	half-life [1]	Activity (THP-1 [2])	solubility [4]	viability at 10 µM (THP-1 [5])	Activity (THP-1 [6])	Activity (THP-1 [7])	Activity (THP-1 [8])	Activity (THP-1 [9])	Activity (THP-1 [14])	Activity (THP-1 [15])	Activity (THP-1 [16])	Activity (THP-1 [17])	also measured
NCCN1CCC[C@H]1C(=O)N[C@@H](CCC(=O)O)C(=O)O.O=C(O)C(F)(F)F	6.6 h	Non-Toxic	Soluble										viability at 10 µM (THP-1 [3]): 76%
NCCN1CCC[C@H]1C(=O)N[C@@H](CCC(=O)O)C(=O)O.O=C(O)C(F)(F)F.O=C(O)C(F)(F)F	11.8 h	Non-Toxic	Soluble	90%									
NCCN1CCC[C@H]1C(=O)N[C@@H](CCC(=O)O)C(=O)O					Active	Active	Active	Active	Active	Active	inactive	inactive	Activity (THP-1 [10]): Active; Activity (THP-1 [11]): Active; Activity (THP-1 [12]): Active; Activity (THP-1 [13]): Active; Activity (THP-1 [18]): Active; Activity (THP-1 [19]): Active; Activity (THP-1 [20]): Active; Activity (THP-1 [21]): inactive; Activity (THP-1 [22]): inactive; Activity (THP-1 [23]): inactive
NCC(=O)N1CCC[C@H]1C(=O)N[C@@H](CCC(=O)O)C(=O)O.O=C(O)C(F)(F)F.O=C(O)C(F)(F)F	4.5 h	Non-Toxic	Soluble	100%	Active	Active	Active	Active	inactive	Active	inactive	inactive	Activity (THP-1 [24]): Active; Activity (THP-1 [25]): Active; Activity (THP-1 [26]): Active; Activity (THP-1 [27]): Active; Activity (THP-1 [28]): Active; Activity (THP-1 [29]): Active

— ChEMBL document CHEMBL4371039, “Synthesis and biological evaluation of novel analogues of Gly-l-Pro-l-Glu (GPE) as neuroprotective agents” (Bioorg Med Chem Lett, 2019)
